# Assay results from patent US20070087344A1, “Methods for characterizing signaling pathways and compounds that interact therewith” (BIOSEEK, INC., priority 2003, published 2007).
# “Also recorded” adds a separate entry of the source. Where two headings read alike, the source gives them in different places.
# Tests used:
# Assay type in all cases: cell-based, human
# [1] = tested on: Endothelial cells over-expressing single genes from NFkB, PI3K/Akt, RAS/MAPK or JAK/STAT pathways; assay: Compound profiling in 20 gene over-expression assays (NFkB, PI3K/Akt, RAS/MAPK, JAK/STAT), pairwise Pearson correlation; conditions: DRB 10 micromolar, Apigenin 6 micromolar, 24 hours
# Protocol: Endothelial cells expressing 16 individual genes from NFκB, RAS, PI3K/AKT and JAK/STAT (IFN-γ and IL-4) pathways were treated with compounds for 24 hours. Where indicated additional cytokines were added to cells to reveal activity of the over-expressed genes (e.g. AKT1/IL1 means that IL-1-beta was added to AKT-over-expressing cells). Parameters measured were VCAM-1 for NFκB, PI3K, and RAS/MAPK pathway genes, HLA-DR for JAK/STAT(IFNγ) pathway genes, and VCAM-1 (IL4/VCAM-1) and Eotaxin-3 (IL4/Eot3) for JAK/STAT(IL4) pathway. […] Statistically significant correlations (permutation method described further in the text and in Example 1B) in the table are shaded (dark grey for correlation coefficients in the range of 0.75 to 1, and light grey for the range of 0.55 to 0.75).
# With a permutation technique, an average distribution of the correlation coefficients that will be obtained by chance is constructed and the values of the correlations that correspond to a required level of significance are obtained. The original similarity matrix is filtered using these values, thus providing a consistent way of identifying correlations coefficients with potential biological significance. This method also allows calculation of a false positive rate, providing the user with a way of balancing “hit rate” and stringency of correlation significance. […]
# [2] = tested on: HUVEC cell lines over-expressing IKBKB; assay: VCAM-1 expression (ELISA) in HUVEC over-expressing IKBKB
# [3] = tested on: HUVEC cell lines over-expressing RELA; assay: VCAM-1 expression (ELISA) in HUVEC over-expressing RELA
# [4] = tested on: MYD88 over-expressing endothelial cells; assay: Response to MYD88 over-expression in IL-1-beta-treated endothelial cells (VCAM-1, E-selectin); conditions: IL-1-beta-treated cells; MYD88 inhibits VCAM-1 and E-selectin expression
# Protocol: (§1) A. Grouping Genes into Signal Transduction Pathways by Gene Over-Expression. Genes encoding key elements of pro-inflammatory pathways (IL-1, TNF-alpha, CD40, and IFN-gamma), the core NFkB pathway, the PI3K/Akt pathway, and the RAS/RAF/MEK pathway (see Table 2) were introduced into endothelial cells by retroviral transduction and allowed to express their encoded proteins for 48 hours, substantially as described in Example 1. The gene-modified endothelial cells were then subjected to 24 hour cytokine stimulation.
# (§2) Gene over-expression generally results in activation of the target pathway (in contrast to most pharmaceutical drugs, which are typically inhibitors).
# (§3) To explore this observation further, we re-examined the response to MYD88 and genes encoding representative members of the RAS/MAPK and NFkB pathways (RAS* and TNFRSF1A, respectively) in all individual cell systems. […] By contrast, the response induced by MYD88 in IL-1-beta-treated cells was similar to that induced by RAS*, the main effect being to inhibit expression of the adhesion molecules VCAM-1 and E-selectin. Over-expression of MYD88 thus appears to stimulate the RAS/MAPK pathway under these conditions. […] MYD88 (and IRAK1) are known to be involved in IL-1-induced but not in TNF-induced signaling, and PD098059 indeed had no effect on VCAM-1 expression in TNF-alpha-treated cells. […]
# [5] = tested on: RAS*, RAF* or MEK1* over-expressing cells; assay: Profiles induced by over-expression of RAS*, RAF* or MEK1* genes
# Source text: The pathway information developed by practice of the methods of the present invention facilitates the in-depth characterization (mechanism-of-action studies) of chemical compounds. […] A high throughput approach can be used to test a compound against genes from known signaling pathways, as well as genes of unknown pathway origin.
# [6] = tested on: RAS* over-expressing endothelial cells; assay: Response to RAS* over-expression in IL-1-beta-treated endothelial cells (VCAM-1, E-selectin); conditions: IL-1-beta-treated cells; RAS* inhibits VCAM-1 and E-selectin expression
# Protocol: as §1, §2, §3
# TNF-alpha-treated cells = assay: VCAM-1 expression in TNF-alpha-treated endothelial cells
# Source text: as §2
# To explore this observation further, we re-examined the response to MYD88 and genes encoding representative members of the RAS/MAPK and NFkB pathways (RAS* and TNFRSF1A, respectively) in all individual cell systems. […] By contrast, the response induced by MYD88 in IL-1-beta-treated cells was similar to that induced by RAS*, the main effect being to inhibit expression of the adhesion molecules VCAM-1 and E-selectin. Over-expression of MYD88 thus appears to stimulate the RAS/MAPK pathway under these conditions. […] MYD88 (and IRAK1) are known to be involved in IL-1-induced but not in TNF-induced signaling, and PD098059 indeed had no effect on VCAM-1 expression in TNF-alpha-treated cells. Multi-system analysis can thus detect novel functional interrelationships between different signaling pathways.
# [7] = tested on: HUVEC stimulated with IL-1-beta, TNF-alpha and IFN-gamma; assay: Functional profiles in HUVEC stimulated with IL-1-beta, TNF-alpha and IFN-gamma compared with siRNA knock-down profiles; conditions: E-selectin, HLA-DR, ICAM-1, IL-8, MCP-1, MIG, VCAM-1 readouts
# Source text: The cells used to generate functional profiles were HUVEC stimulated with a mixture of cytokines IL-1beta+TNF-alpha+IFN-gamma, and the readout parameters were E-selectin, HLA-DR, ICAM-1, IL-8, MCP-1, MIG and VCAM-1. Statistical analysis (permutation method) and generation of a two-dimensional map was done as described above.
# Early passage (<5) exponentially growing HUVEC cells were harvested, washed once with PBS, and resuspended at 2×10^6 cells in 100 microliter Nucelofection solution (Human Umbilical Vein Endothelial Cell Nucleofector Kit, AMAXA, Koeln, Germany). SiRNA (15 microliter of a 20 micromolar solution; Dharmacon, Lafayette, Colo.) was added to the cell suspension, transferred into an electroporation cuvette, and electroporated using the U-1 setting on an AMAXA Nucleofector device. The cell suspension was then transferred into a separate tube containing 3 ml of complete EGM-2 media (Clonetics), incubated at 37° C. for 10 minutes, and plated into 96-well microtiter plates (25,000 cells/well) for cytokine activation and ELISA analysis as described above. Statistical analyses and pairwise correlation analyses of functional profiles obtained by gene knock-down were performed in the manner as described for the gene-over-expression approach described above.
# [8] = tested on: HUVEC cell lines over-expressing TNF-alpha; assay: VCAM-1 expression (ELISA) in HUVEC over-expressing TNF-alpha
smiles,measurement,setting,value
OC[C@H]1O[C@@H](n2cnc3cc(Cl)c(Cl)cc32)[C@H](O)[C@@H]1O [DRB],Overlap of functional profile with those of 17-MG and beta-zearalenol,[1],only in the JAK/STAT portion of the overall profile
"CC(Cc1ccc(O)c(O)c1)C(C)Cc1ccc(O)c(O)c1 (stereo not shown) [NDGA, nordihydroguaiaretic acid]",Inhibition of IKBKB induced VCAM-1 expression,[2],not IKBKB or RELA induced VCAM-1 expression; also recorded: inhibits only the TNF-alpha gene
same,Inhibition of RELA induced VCAM-1 expression,[3],not IKBKB or RELA induced VCAM-1 expression; also recorded: inhibits only the TNF-alpha gene
COc1cccc(-c2cc(=O)c3ccccc3o2)c1N [PD098059],Effect on the response induced by MYD88 over-expression,[4],reversed the effect
same,"Effect on profiles induced by RAS*, RAF* or MEK1* genes",[5]; gene over-expressing cells,affected
same,Effect on the response induced by RAS* over-expression,[6],reversed the effect
same,Effect on VCAM-1 expression,TNF-alpha-treated cells,no effect
Oc1ccc(-c2nc(-c3ccncc3)c(-c3ccc(F)cc3)[nH]2)cc1 [SB202190],Similarity of functional profile to siRNA-mediated dual knock-down of MEK3 and 6,[7],similar
N#CC(=C(/N)Sc1ccccc1N)/C(C#N)=C(/N)Sc1ccccc1N [Uo126],"Effect on profiles induced by RAS*, RAF* or MEK1* genes",[5],affected
O=c1cc(-c2ccc(O)cc2)oc2cc(O)cc(O)c12 [apigenin],Overlap of functional profile with those of 17-MG and beta-zearalenol,[1],only in the JAK/STAT portion of the overall profile
CC(C)Cc1ccc(C(C)C(=O)O)cc1 (stereo not shown) [ibuprofen],Inhibition of IKBKB induced VCAM-1 expression,[2],inhibits TNF-alpha and IKBKB genes
same,Inhibition of TNF-alpha induced VCAM-1 expression,[8],inhibits TNF-alpha and IKBKB genes
same,Inhibition of RELA induced VCAM-1 expression,[3],not in RELA over-expressing cells
